Literature values as cited in patent US5177064A, “Targeted drug delivery via phosphonate derivatives” (University of Florida, priority 1990, dated 1993).
≈ marks a conversion by molar mass, not a printed value. One block for each compound: values may come before it.

Columns and labels:
[1] = human, in vivo
[2] = humans
[3] = at 37° C.
HCMV = conditions: in vitro; read-out: IC50 against HCMV
encephalitis [4] = conditions: treatment of encephalitis in vitro and in vivo
encephalitis [5] = system: encephalitis
[6] = intravenous, biphasic elimination

log P: 2.06
SMILES: NC(=O)c1ncn([C@@H]2O[C@H](CO)[C@@H](O)[C@H]2O)n1 [ribavirin, 1-β-D-ribofuranosyl-1,2,4-triazole-3-carboxamide]

log P (octanol/water) (octanol/water): negative
SMILES: Nc1ncnc2c1ncn2[C@@H]1O[C@H](CO)[C@@H](O)[C@@H]1O [Ara-A, 9-β-D-arabinofuranosyladenine]

bioavailability [1]: about 60%
SMILES: Cc1cn([C@H]2C[C@H](N=[N+]=[N-])[C@@H](CO)O2)c(=O)[nH]c1=O [AZT, azidothymidine]

SMILES: Nc1nc(O)c2ncn(COC(CO)CO)c2n1 [DHPG, Dihydroxypropoxymethylgaunine]
drug excreted unchanged by the kidneys [2]: 99%
oral bioavailability ([2]; based on urinary excretion): 3-4.6%
α-phase half-life [2, 6]: 0.23 h
β-phase half-life [2, 6]: 2.53 h
aqueous solubility [3]: 5100 µg/mL (≈ 20 mM)
IC50 (HCMV): ~2500 nM
effectiveness relative to acyclovir (encephalitis [4]): at least 100 fold

SMILES: Cc1cn([C@@H]2O[C@H](CO)[C@@H](O)[C@@H]2F)c(=O)[nH]c1=O [FMAU]
doses producing irreversible neurological damage (encephalitis [5]; in vivo): greater than 32 mg
therapeutic index (encephalitis [5]; treating encephalitis): greater than 3,000
